Measured values published in ChEMBL document CHEMBL3994622, “Design and synthesis of new RAF kinase-inhibiting antiproliferative quinoline derivatives. Part 2: Diarylurea derivatives” (Eur J Med Chem, 2017).

Experiments:
Format in all cases: functional
[1] = test system: HL-60(TB); assay: Growth inhibition of human HL-60(TB) cells assessed as cell growth at 30 uM incubated for 48 hrs by sulforhodamine B assay relative to control; conditions: HL-60, 48 h, read-out: Activity
[2] = test system: RPMI-8226; assay: Growth inhibition of human RPMI8226 cells assessed as cell growth at 3 uM incubated for 48 hrs by sulforhodamine B assay relative to control; conditions: RPMI-8226, 48 h, read-out: Activity
[3] = test system: PC-3; assay: Growth inhibition of human PC3 cells assessed as cell growth at 0.003 uM incubated for 48 hrs by sulforhodamine B assay relative to control; conditions: PC-3, 48 h, read-out: Activity
[4] = test system: PC-3; assay: Growth inhibition of human PC3 cells assessed as cell growth at 0.3 uM incubated for 48 hrs by sulforhodamine B assay relative to control; conditions: PC-3, 48 h, read-out: Activity
[5] = test system: HOP-62; assay: Growth inhibition of human HOP62 cells assessed as cell growth at 3 uM incubated for 48 hrs by sulforhodamine B assay relative to control; conditions: HOP-62, 48 h, read-out: Activity
[6] = test system: HCT-116; assay: Growth inhibition of human HCT116 cells assessed as cell growth at 30 uM incubated for 48 hrs by sulforhodamine B assay relative to control; conditions: HCT-116, 48 h, read-out: Activity
[7] = test system: SK-MEL-2; assay: Growth inhibition of human SK-MEL-2 cells assessed as cell growth at 30 uM incubated for 48 hrs by sulforhodamine B assay relative to control; conditions: SK-MEL-2, 48 h, read-out: Activity
[8] = test system: IGROV-1; assay: Growth inhibition of human IGROV1 cells assessed as cell growth at 0.3 uM incubated for 48 hrs by sulforhodamine B assay relative to control; conditions: IGROV-1, 48 h, read-out: Activity
[9] = test system: Hs-578T; assay: Growth inhibition of human Hs 578T cells assessed as cell growth at 0.03 uM incubated for 48 hrs by sulforhodamine B assay relative to control; conditions: read-out: Activity
[10] = test system: Hs-578T; assay: Growth inhibition of human Hs 578T cells assessed as cell growth at 3 uM incubated for 48 hrs by sulforhodamine B assay relative to control; conditions: read-out: Activity
[11] = test system: SF-268; assay: Growth inhibition of human SF268 cells assessed as cell growth at 3 uM incubated for 48 hrs by sulforhodamine B assay relative to control; conditions: SF-268, 48 h, read-out: Activity
[12] = test system: HCT-15; assay: Growth inhibition of human HCT15 cells assessed as cell growth at 0.3 uM incubated for 48 hrs by sulforhodamine B assay relative to control; conditions: HCT-15, 48 h, read-out: Activity
[13] = test system: NCI-H522; assay: Growth inhibition of human NCI-H522 cells assessed as cell growth at 30 uM incubated for 48 hrs by sulforhodamine B assay relative to control; conditions: NCI-H522, 48 h, read-out: Activity
[14] = test system: OVCAR-4; assay: Growth inhibition of human OVCAR4 cells assessed as cell growth at 0.03 uM incubated for 48 hrs by sulforhodamine B assay relative to control; conditions: OVCAR-4, 48 h, read-out: Activity
[15] = test system: TK-10; assay: Growth inhibition of human TK10 cells assessed as cell growth at 0.003 uM incubated for 48 hrs by sulforhodamine B assay relative to control; conditions: TK-10, 48 h, read-out: Activity
[16] = test system: SK-MEL-5; assay: Growth inhibition of human SK-MEL-5 cells assessed as cell growth at 0.3 uM incubated for 48 hrs by sulforhodamine B assay relative to control; conditions: SK-MEL-5, 48 h, read-out: Activity
[17] = test system: OVCAR-8; assay: Growth inhibition of human OVCAR8 cells assessed as cell growth at 0.01 uM incubated for 48 hrs by sulforhodamine B assay relative to control; conditions: OVCAR-8, 48 h, read-out: Activity
[18] = test system: T47D; assay: Growth inhibition of human T47D cells assessed as cell growth at 0.1 uM incubated for 48 hrs by sulforhodamine B assay relative to control; conditions: read-out: Activity
[19] = test system: OVCAR-3; assay: Growth inhibition of human OVCAR3 cells assessed as cell growth at 0.01 uM incubated for 48 hrs by sulforhodamine B assay relative to control; conditions: OVCAR-3, 48 h, read-out: Activity
[20] = test system: BT-549; assay: Growth inhibition of human BT549 cells assessed as cell growth at 1 uM incubated for 48 hrs by sulforhodamine B assay relative to control; conditions: BT-549, 48 h, read-out: Activity
[21] = test system: MDA-MB-435; assay: Growth inhibition of human MDA-MB-435 cells assessed as cell growth at 0.01 uM incubated for 48 hrs by sulforhodamine B assay relative to control; conditions: MDA-MB-435, 48 h, read-out: Activity
[22] = test system: NCI/ADR-RES; assay: Growth inhibition of human NCI/ADR-RES cells assessed as cell growth at 10 uM incubated for 48 hrs by sulforhodamine B assay relative to control; conditions: read-out: Activity
[23] = test system: A498; assay: Growth inhibition of human A498 cells assessed as cell growth at 0.1 uM incubated for 48 hrs by sulforhodamine B assay relative to control; conditions: A498, 48 h, read-out: Activity
[24] = test system: CCRF-CEM; assay: Growth inhibition of human CCRF-CEM cells assessed as cell growth at 10 uM incubated for 48 hrs by sulforhodamine B assay relative to control; conditions: read-out: Activity
[25] = test system: HT-29; assay: Growth inhibition of human HT-29 cells assessed as cell growth at 0.01 uM incubated for 48 hrs by sulforhodamine B assay relative to control; conditions: HT-29, 48 h, read-out: Activity
[26] = test system: RPMI-8226; assay: Growth inhibition of human RPMI8226 cells assessed as cell growth at 0.01 uM incubated for 48 hrs by sulforhodamine B assay relative to control; conditions: RPMI-8226, 48 h, read-out: Activity
[27] = test system: HOP-62; assay: Growth inhibition of human HOP62 cells assessed as cell growth at 1 uM incubated for 48 hrs by sulforhodamine B assay relative to control; conditions: HOP-62, 48 h, read-out: Activity
[28] = test system: SK-MEL-28; assay: Growth inhibition of human SK-MEL-28 cells assessed as cell growth at 10 uM incubated for 48 hrs by sulforhodamine B assay relative to control; conditions: SK-MEL-28, 48 h, read-out: Activity
[29] = test system: MOLT-4; assay: Growth inhibition of human MOLT4 cells assessed as cell growth at 0.01 uM incubated for 48 hrs by sulforhodamine B assay relative to control; conditions: MOLT-4, 48 h, read-out: Activity
[30] = test system: CAKI-1; assay: Growth inhibition of human Caki1 cells assessed as cell growth at 1 uM incubated for 48 hrs by sulforhodamine B assay relative to control; conditions: CAKI-1, 48 h, read-out: Activity
[31] = test system: T47D; assay: Growth inhibition of human T47D cells assessed as cell growth at 100 uM incubated for 48 hrs by sulforhodamine B assay relative to control; conditions: read-out: Activity
[32] = test system: M14; assay: Growth inhibition of human M14 cells assessed as cell growth at 1 uM incubated for 48 hrs by sulforhodamine B assay relative to control; conditions: M14, 48 h, read-out: Activity
[33] = test system: U-251; assay: Growth inhibition of human U251 cells assessed as cell growth at 0.01 uM incubated for 48 hrs by sulforhodamine B assay relative to control; conditions: U-251, 48 h, read-out: Activity
[34] = test system: SN12C; assay: Growth inhibition of human SN12C cells assessed as cell growth at 10 uM incubated for 48 hrs by sulforhodamine B assay relative to control; conditions: read-out: Activity

COc1cc2cc(Oc3ccc(NC(=O)Nc4ccc(Cl)c(C(F)(F)F)c4)cc3)c(C)nc2cc1OC
growth at 30 µM [1]: -22% | growth at 3 µM [2]: -36% | growth at 0.003 µM [3]: 95% | growth at 0.3 µM [4]: 83% | growth at 3 µM [5]: 26% | growth at 30 µM [6]: -83% | growth at 30 µM [7]: -69% | growth at 0.3 µM [8]: 117% | growth at 0.03 µM [9]: 109% | growth at 3 µM [10]: -15% | growth at 3 µM [11]: 26% | growth at 0.3 µM [12]: 91% | growth at 30 µM [13]: -81% | growth at 0.03 µM [14]: 96% | growth at 0.003 µM [15]: 94% | growth at 0.3 µM [16]: 94%

COc1cc2cc(Oc3ccc(NC(=O)Nc4cc(C(F)(F)F)cc(C(F)(F)F)c4)cc3)c(C)nc2cc1OC
growth at 0.01 µM [17]: 111% | growth at 0.1 µM [18]: 95% | growth at 0.01 µM [19]: 104% | growth at 1 µM [20]: 86% | growth at 0.01 µM [21]: 94% | growth at 10 µM [22]: -54% | growth at 0.1 µM [23]: 93% | growth at 10 µM [24]: -33% | growth at 0.01 µM [25]: 97% | growth at 0.01 µM [26]: 98% | growth at 1 µM [27]: 70% | growth at 10 µM [28]: -61% | growth at 0.01 µM [29]: 104% | growth at 1 µM [30]: 63% | growth at 100 µM [31]: -82% | growth at 1 µM [32]: 50% | growth at 0.01 µM [33]: 100% | growth at 10 µM [34]: -75%

COc1cc2cc(Oc3ccc(NC(=O)Nc4ccc(Cl)c(Cl)c4)cc3)c(C)nc2cc1OC
growth at 0.01 µM [17]: 101% | growth at 0.1 µM [18]: 103% | growth at 0.01 µM [19]: 109% | growth at 1 µM [20]: 78% | growth at 0.01 µM [21]: 94% | growth at 10 µM [22]: 14% | growth at 0.1 µM [23]: 86% | growth at 10 µM [24]: 4% | growth at 0.01 µM [25]: 108% | growth at 0.01 µM [26]: 100% | growth at 1 µM [27]: 101% | growth at 10 µM [28]: 16% | growth at 0.01 µM [29]: 108% | growth at 1 µM [30]: 83% | growth at 100 µM [31]: -54% | growth at 1 µM [32]: 83% | growth at 0.01 µM [33]: 94% | growth at 10 µM [34]: 19%

Cc1nc2cc(O)c(O)cc2cc1Oc1ccc(NC(=O)Nc2ccc(Cl)c(Cl)c2)cc1
growth at 30 µM [1]: -20% | growth at 3 µM [2]: 92% | growth at 0.003 µM [3]: 104% | growth at 0.3 µM [4]: 97% | growth at 3 µM [5]: 87% | growth at 30 µM [6]: -26% | growth at 30 µM [7]: -25% | growth at 0.3 µM [8]: 103% | growth at 0.03 µM [9]: 85% | growth at 3 µM [10]: 100% | growth at 3 µM [11]: 85% | growth at 0.3 µM [12]: 101% | growth at 30 µM [13]: -46% | growth at 0.03 µM [14]: 98% | growth at 0.003 µM [15]: 98% | growth at 0.3 µM [16]: 97%
